ChEMBL document CHEMBL1155460, “Prediction of acetylcholinesterase inhibitors and characterization of correlative molecular descriptors by machine learning methods” (Eur J Med Chem, 2010)

Biological target: Acetylcholinesterase (Homo sapiens, UniProt P22303)
Sequence (P22303 whole entry): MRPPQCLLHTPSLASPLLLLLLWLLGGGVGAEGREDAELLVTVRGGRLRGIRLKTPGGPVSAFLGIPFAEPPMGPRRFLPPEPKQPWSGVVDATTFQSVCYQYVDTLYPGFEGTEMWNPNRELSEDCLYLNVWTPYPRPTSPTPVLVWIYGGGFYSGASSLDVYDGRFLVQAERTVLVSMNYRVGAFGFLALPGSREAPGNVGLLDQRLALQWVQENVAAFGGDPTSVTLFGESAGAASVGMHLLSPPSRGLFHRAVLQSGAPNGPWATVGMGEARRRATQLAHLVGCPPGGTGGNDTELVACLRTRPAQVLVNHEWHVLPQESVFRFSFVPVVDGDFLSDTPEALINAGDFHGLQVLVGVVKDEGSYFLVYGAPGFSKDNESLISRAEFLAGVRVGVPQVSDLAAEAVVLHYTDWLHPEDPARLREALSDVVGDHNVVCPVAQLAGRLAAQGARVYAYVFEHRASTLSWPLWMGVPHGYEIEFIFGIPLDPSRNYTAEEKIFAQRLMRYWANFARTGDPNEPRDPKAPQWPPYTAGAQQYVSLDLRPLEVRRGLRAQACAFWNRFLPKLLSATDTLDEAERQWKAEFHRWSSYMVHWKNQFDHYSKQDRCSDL

SMILES | IC50
CCc1cc(=NCCC2CCN(Cc3ccccc3)CC2)[nH]nc1-c1ccccc1 | 0.027 µM
O=C(/C=C/c1c[nH]c2ccccc12)NCCCCCCNc1c2c(nc3cc(Cl)ccc13)CCCC2 | 0.018 µM
CCCCCCNC(=O)Oc1ccc2c(c1)[C@]1(C)CCN(CCC)[C@@H]1C2 | 0.062 µM
Nc1ccc2c(c1)c(-c1ccccc1)[n+](CCCNCCCNCCCNc1c3c(nc4ccccc14)CCCC3)c1cc(N)ccc21 | 0.00149 µM
O=[N+]([O-])c1ccc2nc3c(c(Nc4ccccc4)c2c1)CCCC3 | 1.6 µM
CCCCCCNC(=O)Oc1ccc2c(c1)[C@]1(C)CCN(C)[C@@H]1C2 | 0.01 µM
CN(C)CCCCCCCCCCCCNc1c2c(nc3ccccc13)CCCC2 | 0.264 µM
O=C(CCOCCc1c[nH]c2ccccc12)NCCCCCCCNc1c2c(nc3cc(Cl)ccc13)CCCC2 | 0.003 µM
COC(=O)Nc1cccc2n1cc(-c1ccc(OC(=O)N(C)C)cc1)[n+]2C | 1.1 µM
COc1cc2c(cc1OC)C(=O)C(CC1CCN(c3ccccc3)CC1)C2 (configuration not stated) | 0.0057 µM
Clc1ccc2c(NCCCCCCNc3c4c(nc5cc(Cl)ccc35)CCCC4)c3c(nc2c1)CCCC3 | 0.0006 µM
CCCCCCCNC(=O)Oc1ccc2c(c1)[C@]1(C)CCN(CC)[C@@H]1C2 | 0.058 µM
CN(C)CCCCCCCCCNc1c2c(nc3ccccc13)CCCC2 | 0.071 µM
Clc1ccc2c(NCCCCCCCNc3c4c(nc5cc(Cl)ccc35)CCCC4)c3c(nc2c1)CCCC3 | 7e-05 µM
COc1ccc(NC(=S)NCCOCCN(C)Cc2cccc([N+](=O)[O-])c2)cc1OC | 1.5 µM
CN(CCOCCNC(=S)NC(=O)c1ccccc1)Cc1ccccc1 | 0.12 µM
CC1Cc2c(nc3ccccc3c2N)C1(C)O (configuration not stated) | 134 µM
O=C(CCC1CCN(Cc2ccccc2)CC1)c1ccc2c(c1)NCCC2 | 0.164 µM
CN(CCOCCNC(=S)Nc1ccccn1)Cc1ccccc1 | 4 µM
c1cnc2nc3c(c(NCCCCCCCNc4c5c(nc6ncccc46)CCCC5)c2c1)CCCC3 | 0.0013 µM
c1ccc2c(NCCCCCCCCCNc3ccncc3)c3c(nc2c1)CCCC3 | 0.083 µM
CC(=O)Nc1ccc2c(c1)C(=O)N(CCC1CCN(Cc3ccccc3)CC1)C2=O | 0.0028 µM

SMILES | IC50
Cc1nc(N)ncc1-c1nnnn1-c1ccc(-c2ccccc2)cc1 | 27 µM
O=C(Cc1c[nH]c2ccccc12)NCCCCCCCNc1c2c(nc3cc(Cl)ccc13)CCCC2 | 0.0002 µM
CN(CCOCCCNC(=S)NC(=O)c1ccccc1)Cc1ccccc1 | 1.1 µM
Nc1cc(-c2ccccc2)nnc1NCCN1CCOCC1 | 270 µM
c1ccc(-c2ccc(NCCN3CCOCC3)nn2)cc1 | 1000 µM
CC(=O)N(CCC1CCN(Cc2ccccc2)CC1)c1ccccc1 | 0.052 µM
CCCCCCNC(=O)Oc1ccc2c(c1)C1CCN(CCC)C1C2 (configuration not stated) | 0.546 µM
CCCCC1=C(C)Cc2c1nc1ccccc1c2N | 25 µM
CC(=O)N(C)CCC1CCN(Cc2ccccc2)CC1 | 0.66 µM
Cc1cccc2n1cc(-c1cccc(OC(=O)N(C)C)c1)[n+]2C | 24 µM
CN(C)CCCCCCCCNc1c2c(nc3ccccc13)CCCC2 | 0.047 µM
CCCNC(=O)Oc1ccc2c(c1)[C@]1(C)CCN(CC)[C@@H]1C2 | 0.154 µM
CCN(CCOCCNC(=O)NCc1ccccc1)CC1CCCCC1 | 10 µM
O=C(CCC1CCN(Cc2ccccc2F)CC1)c1ccc2c(c1)CCN2 | 0.043 µM
O=C(CCCc1c[nH]c2ccccc12)NCCCCCCNc1c2c(nc3cc(Cl)ccc13)CCCC2 | 0.0005 µM
Nc1c2c(nc3ccccc13)CCCCC2 | 0.039 µM
O=C1c2ccc([N+](=O)[O-])cc2C(=O)N1CCC1CCN(Cc2ccccc2)CC1 | 0.0125 µM
CCCCCCCNC(=O)Oc1ccc2c(c1)C1CCN(CCC)C1C2 (configuration not stated) | 0.629 µM
CC12CCC(c3c1nc1ccccc1c3N)C2(C)C (configuration not stated) | 110 µM
CN(CCCCNc1ccc(-c2ccccc2)nn1)Cc1ccccc1 | 11 µM
c1ccc(-c2ccc(NCCCCCN3Cc4ccccc4CN3)nn2)cc1 | 10 µM
c1ccc(CN2CCC(Nc3ccc(-c4ccccc4)nn3)CC2)cc1 | 65 µM
O=C(CCC1CCN(Cc2ccc(F)cc2)CC1)c1ccc2c(c1)CCN2 | 0.089 µM

SMILES | IC50
CNC(=O)Oc1ccc(-c2cn3c(C)cccc3[n+]2C)cc1 | 4 µM
CN(C)C(=O)Oc1ccc(-c2cn3ccccc3[n+]2C)cc1 | 17.1 µM
CC(=O)Nc1cccc2n1cc(-c1ccc(OC(=O)N(C)C)cc1)[n+]2C | 0.7 µM
CN1CCC(CCN2C(=O)c3ccc([N+](=O)[O-])cc3C2=O)CC1 | 6.8 µM
CN(C)C(=O)Oc1cccc(-c2cn3ccccc3[n+]2C)c1 | 7.1 µM
CNC(=O)Oc1cccc(-c2cn3c(NC(C)=O)cccc3[n+]2C)c1 | 4.5 µM
CCCCN1CCc2cc(C(=O)CCC3CCN(Cc4ccccc4)CC3)ccc21 | 0.029 µM
CCCCNC(=O)Oc1cccc(CN(C)CCCOc2ccc3c(=O)ccoc3c2)c1 | 0.25 µM
CCCCC1(O)c2nc3ccccc3c(N)c2CC1C (configuration not stated) | 91 µM
NCCCCCCCNc1c2c(nc3ccccc13)CCCC2 | 0.319 µM
N#Cc1cc(-c2ccccc2)nnc1NCCN1CCOCC1 [BAZINAPRINE] | 100 µM
c1ccc(-c2ccc(NCN3CCCCC3)nc2)cc1 | 13 µM
COc1ccccc1CN1CCC(CCC(=O)c2ccc3c(c2)CCN3)CC1 | 0.812 µM
CNC(=O)Oc1cccc(CN(C)CCCCCCCOc2ccc3c(c2)CC/C(=C/c2cc(O)c(O)c(O)c2)C3=O)c1 | 0.00494 µM
Cc1cc(=NCCC2CCN(Cc3ccccc3)CC2)[nH]nc1-c1ccccc1 | 0.021 µM
Nc1cccc2c1C(=O)N(CCC1CCN(Cc3ccccc3)CC1)C2=O | 0.011 µM
O=C(NCCCCCCCNc1c2c(nc3cc(Cl)ccc13)CCCC2)c1c[nH]c2ccccc12 | 0.036 µM
CNC(=O)Oc1ccc(-c2cn3ccccc3[n+]2C)cc1 | 19.5 µM
CCCCCCCNC(=O)Oc1ccc2c(c1)[C@]1(C)CCN(CCC)[C@@H]1C2 | 0.093 µM
Fc1ccc2c(NCCCCCCCNc3c4c(nc5cc(F)ccc35)CCCC4)c3c(nc2c1)CCCC3 | 0.0006 µM
CC(=O)N(CCC1CCN(Cc2ccccc2)CC1)c1cccc(F)c1 | 0.065 µM
CC(=O)N(C)c1cccc2n1cc(-c1ccc(OC(=O)N(C)C)cc1)[n+]2C | 24.5 µM
O=C1c2ccccc2CN1CCC1CCN(Cc2ccccc2)CC1 | 0.098 µM

SMILES | IC50
O=C(Nc1ccc2c(c1)C(=O)N(CCC1CCN(Cc3ccccc3)CC1)C2=O)c1ccccc1 | 0.0012 µM
Cc1cccc(CN2CCC(CCC(=O)c3ccc4c(c3)CCN4)CC2)c1 | 0.05 µM
Nc1c2c(nc3ccccc13)-c1ccccc1CCC2 | 166 µM
Cc1cc(-c2ccc(Cl)cc2)nnc1NCCN1CCOCC1 | 34 µM
O=C(Nc1cccc2c1C(=O)N(CCC1CCN(Cc3ccccc3)CC1)C2=O)c1ccccc1 | 0.34 µM
Cc1cn2cc(C(N)=O)ccc2[n+]1C | 27 µM
Nc1c2c(nc3ccccc13)-c1ccccc1CC2 | 37 µM
NCCCCCCCCNc1c2c(nc3ccccc13)CCCC2 | 0.089 µM
COc1ccc(CN2CCC(CCN3C(=O)c4ccc([N+](=O)[O-])cc4C3=O)CC2)cc1 | 0.44 µM
CN(CCOCCNC(=S)NC(=O)c1ccccc1)C1CCCCC1 | 0.013 µM
CCCCCCNC(=O)Oc1cccc(CN(C)CCCCCOc2ccc3c(=O)c4ccccc4oc3c2)c1 | 0.1 µM
O=C1c2ccc([N+](=O)[O-])cc2C(=O)N1C1CCN(Cc2ccccc2)CC1 | 27 µM
c1ccc2c(NCCCCCCCCCNc3c4c(nc5ccccc35)CCCC4)ccnc2c1 | 0.038 µM
O=C1CCCCN1CCC1CCN(Cc2ccccc2)CC1 | 0.27 µM
CN(CCCCCNc1ccc(-c2ccccc2)nn1)Cc1ccccc1 | 0.74 µM
CCCCCCNC(=O)Oc1cccc(CN(CC)CCCOc2ccc3c(=O)c4ccccc4oc3c2)c1 | 0.16 µM
c1ccc2c(NCCCCCCCNc3c4c(nc5ccccc35)CCC4)c3c(nc2c1)CCC3 | 0.075 µM
CC(C)c1cc(-c2ccccc2)nnc1NCCC1CCN(Cc2ccccc2)CC1 | 0.43 µM
O=C(CCc1c[nH]c2ccccc12)NCCCCCCNc1c2c(nc3ccccc13)CCCC2 | 2e-05 µM
O=C(NCCCCCCNc1c2c(nc3cc(Cl)ccc13)CCCC2)c1c[nH]c2ccccc12 | 0.033 µM
c1ccc2c(NCCCCCCCNc3c4c(nc5ccccc35)CCCC4)ccnc2c1 | 0.0101 µM
CN1CCCCc2ccc(C(=O)CCC3CCN(Cc4ccccc4)CC3)cc21 | 0.081 µM
c1ccc2c(NCCCCCCCCCCNc3ccncc3)c3c(nc2c1)CCCC3 | 0.176 µM

SMILES | IC50
c1ccc(-c2ccc(NCCCCN3CCc4ccccc4C3)nn2)cc1 | 15 µM
CN(C)C(=O)Oc1ccc(-c2cn3c(C(F)(F)F)cccc3[n+]2C)cc1 | 10 µM
O=C(c1ccccc1)c1ccc2c(c1)C(=O)N(CCC1CCN(Cc3ccccc3)CC1)C2=O | 0.0024 µM
c1ccc(-c2cnc(NCN3CCCCC3)nn2)cc1 | 60 µM
CN(CCCNC(=O)CCc1c[nH]c2ccccc12)CCCNc1c2c(nc3cc(Cl)ccc13)CCCC2 | 0.0029 µM
CCN1CCCC1CNc1ccc(-c2ccccc2)nn1 (configuration not stated) | 62 µM
CN(C)C(=O)Oc1cccc(-c2cn3c(C(F)(F)F)cccc3[n+]2C)c1 | 33.6 µM
CNC(=O)Oc1cccc(CN(C)CCCOc2ccc3c(c2)O/C(=C\c2cc(O)c(O)c(O)c2)C3=O)c1 | 0.00299 µM
CN(CCOCCNC(=S)NC(=O)c1ccc2c(c1)C(=O)c1ccccc1-2)Cc1ccccc1 | 0.03 µM
CCCCCCNC(=O)Oc1cccc(CN(C)CCCOc2ccc3c(=O)c4cccnc4oc3c2)c1 | 0.042 µM
CN(C)CCCCCCCNc1c2c(nc3ccccc13)CCCC2 | 0.052 µM
Cc1cc(-c2ccccc2)nnc1NCCC1CCN(Cc2ccccc2)CC1 | 0.32 µM
CN(CCOCCNC(=S)NC(=O)c1ccc(-c2ccccc2)cc1)Cc1ccccc1 | 0.23 µM
O=[N+]([O-])c1ccc2c(Nc3ccccc3)c3c(nc2c1)CCCC3 | 4.8 µM
CC(Cc1ccc(O)cc1)C1CCC(C)C(c2ccc(O)cc2)C1 (configuration not stated) | 0.62 µM
CCCCCCNC(=O)Oc1ccc2c(c1)[C@]1(C)CCN(CC)[C@@H]1C2 | 0.045 µM
O=C1c2ccccc2CC1CC1CCN(c2ccccc2)CC1 (configuration not stated) | 0.15 µM
CN1CCCc2ccc(C(=O)CCC3CCN(Cc4ccccc4)CC3)cc21 | 0.036 µM
c1ccc(C2=NNC(NCN3CCCCC3)=NC2)cc1 | 47 µM
CCN1CC[C@@]2(C)c3cc(OC(=O)Nc4ccccc4)ccc3C[C@@H]12 | 0.176 µM
